Assay results reported in ChEMBL document CHEMBL1201862, “PubChem BioAssay data set” (2004).
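Exposure lasted 48 hours, with cells grown in 96-well plates and compounds tested at five concentrations. Abbreviation: GI50, concentration required for 50% inhibition of growth.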 Active and inactive are the calls of the source. No stated cut-off is given here; in the data, active = GI50 up to about 1.1 µM and inactive = higher.

Experiments:
Experiment in all cases: growth of human tumour cells (NCI), 48 h
[1] = tested on: BT-549
[2] = tested on: COLO 205
[3] = tested on: HL-60
[4] = tested on: HOP-62
[5] = tested on: HOP-92
[6] = tested on: KM12
[7] = tested on: LOX IMVI
[8] = tested on: M14
[9] = tested on: MCF7
[10] = tested on: MDA-MB-231
[11] = tested on: MOLT-4
[12] = tested on: Malme-3M
[13] = tested on: NCI-H23
[14] = tested on: NCI-H522
[15] = tested on: SF-295
[16] = tested on: SK-MEL-28
[17] = tested on: SNB-19
[18] = tested on: SNB-75
[19] = tested on: SW-620
[20] = tested on: T47D

Question: Which results are given for Cc1ccc(-c2cc(-c3ccc(Cl)cc3)nc(/N=C3\C(=O)N(CN4CCOCC4)c4ccc(Cl)cc43)n2)cc1?
Answer: GI50 [1]: 21.8 µM (inactive); GI50 [2]: 20.2 µM (inactive); GI50 [3]: 11.6 µM (inactive); GI50 [4]: 20.3 µM (inactive); GI50 [5]: 17.9 µM (inactive); GI50 [6]: 22.2 µM (inactive); GI50 [7]: 31.8 µM (inactive); GI50 [8]: 26.4 µM (inactive); GI50 [9]: 17.5 µM (inactive); GI50 [10]: 30 µM (inactive); GI50 [11]: 1.1 µM (active); GI50 [12]: > 100 µM (inactive); GI50 [13]: 19.6 µM (inactive); GI50 [14]: 15.4 µM (inactive); GI50 [15]: 35.7 µM (inactive); GI50 [16]: 42.4 µM (inactive); GI50 [17]: 34.8 µM (inactive); GI50 [18]: 29.9 µM (inactive); GI50 [19]: 6.49 µM (inactive); GI50 [20]: 17.3 µM (inactive)

Question: Oc1cc2c3c(c1)CCCN3CCC2 was tested. Which GI50 [1] did it give?
Answer: > 10 µM (inactive)

Question: And the GI50 [2]?
Answer: > 10 µM (inactive)

Question: And the GI50 [3]?
Answer: > 10 µM (inactive)

Question: What about the GI50 [4] of the same molecule?
Answer: > 10 µM (inactive)

Question: What about the GI50 [5] of the same molecule?
Answer: > 10 µM (inactive)

Question: What about the GI50 [6] of the same molecule?
Answer: > 10 µM (inactive)

Question: What about the GI50 [7] of the same molecule?
Answer: > 10 µM (inactive)

Question: What about the GI50 [8] of the same molecule?
Answer: > 10 µM (inactive)

Question: And the GI50 [9]?
Answer: > 10 µM (inactive)

Question: And the GI50 [10]?
Answer: > 10 µM (inactive)

Question: What about the GI50 [11] of the same molecule?
Answer: > 10 µM (inactive)

Question: And the GI50 [12]?
Answer: > 10 µM (inactive)

Question: And the GI50 [13]?
Answer: > 10 µM (inactive)

Question: What about the GI50 [14] of the same molecule?
Answer: > 10 µM (inactive)

Question: And the GI50 [15]?
Answer: > 10 µM (inactive)

Question: What about the GI50 [16] of the same molecule?
Answer: > 10 µM (inactive)

Question: What about the GI50 [17] of the same molecule?
Answer: > 10 µM (inactive)

Question: And the GI50 [18]?
Answer: > 10 µM (inactive)

Question: What about the GI50 [19] of the same molecule?
Answer: > 10 µM (inactive)

Question: And the GI50 [20]?
Answer: > 10 µM (inactive)

Question: For C=CC(=O)C#CC#CC/C=C\CCCCCCC, which GI50 [1] is on record?
Answer: > 20.6 µM (inactive)

Question: And the GI50 [2]?
Answer: > 20.6 µM (inactive)

Question: And the GI50 [3]?
Answer: 9.91 µM (inactive)

Question: And the GI50 [4]?
Answer: > 10.1 µM (inactive)

Question: And the GI50 [5]?
Answer: > 11.3 µM (inactive)

Question: And the GI50 [6]?
Answer: > 20.6 µM (inactive)

Question: And the GI50 [7]?
Answer: 7.76 µM (inactive)

Question: And the GI50 [8]?
Answer: > 14.6 µM (inactive)

Question: What about the GI50 [9] of the same molecule?
Answer: > 20.6 µM (inactive)

Question: And the GI50 [10]?
Answer: > 20.6 µM (inactive)

Question: What about the GI50 [11] of the same molecule?
Answer: 4.53 µM (inactive)

Question: What about the GI50 [12] of the same molecule?
Answer: > 20.6 µM (inactive)

Question: What about the GI50 [13] of the same molecule?
Answer: > 20.6 µM (inactive)

Question: And the GI50 [14]?
Answer: 16 µM (inactive)

Question: What about the GI50 [15] of the same molecule?
Answer: > 20.6 µM (inactive)

Question: And the GI50 [16]?
Answer: > 20.6 µM (inactive)

Question: What about the GI50 [17] of the same molecule?
Answer: > 15.5 µM (inactive)

Question: And the GI50 [18]?
Answer: > 20.6 µM (inactive)

Question: What about the GI50 [19] of the same molecule?
Answer: > 20.6 µM (inactive)

Question: What about the GI50 [20] of the same molecule?
Answer: > 20.6 µM (inactive)

Question: How did the GI50 [1] turn out when O=c1cc(N2CCOCC2)[nH]c(=O)n1-c1cccc(Cl)c1 was run?
Answer: > 100 µM (inactive)

Question: And the GI50 [2]?
Answer: > 100 µM (inactive)

Question: And the GI50 [3]?
Answer: > 100 µM (inactive)

Question: What about the GI50 [4] of the same molecule?
Answer: > 100 µM (inactive)

Question: What about the GI50 [5] of the same molecule?
Answer: > 100 µM (inactive)

Question: What about the GI50 [6] of the same molecule?
Answer: > 100 µM (inactive)

Question: What about the GI50 [7] of the same molecule?
Answer: > 100 µM (inactive)

Question: What about the GI50 [8] of the same molecule?
Answer: > 100 µM (inactive)

Question: And the GI50 [9]?
Answer: > 100 µM (inactive)

Question: And the GI50 [10]?
Answer: > 100 µM (inactive)

Question: What about the GI50 [11] of the same molecule?
Answer: > 100 µM (inactive)

Question: And the GI50 [12]?
Answer: > 100 µM (inactive)

Question: And the GI50 [13]?
Answer: > 100 µM (inactive)

Question: And the GI50 [14]?
Answer: > 100 µM (inactive)

Question: And the GI50 [15]?
Answer: > 100 µM (inactive)

Question: What about the GI50 [16] of the same molecule?
Answer: > 100 µM (inactive)

Question: And the GI50 [17]?
Answer: > 100 µM (inactive)

Question: And the GI50 [18]?
Answer: > 100 µM (inactive)

Question: What about the GI50 [19] of the same molecule?
Answer: > 100 µM (inactive)

Question: What about the GI50 [20] of the same molecule?
Answer: > 100 µM (inactive)

Question: Which results are given for CC(C)=CCC[C@@H](C)C1=C(Nc2ccccc2F)C(=O)C(C)=C(O)C1=O?
Answer: GI50 [1]: 8.09 µM (inactive); GI50 [2]: 2.9 µM (inactive); GI50 [3]: 1 µM (active); GI50 [4]: 9.98 µM (inactive); GI50 [5]: 9.31 µM (inactive); GI50 [6]: 4.16 µM (inactive); GI50 [7]: 4.78 µM (inactive); GI50 [8]: 14.2 µM (inactive); GI50 [9]: 9.95 µM (inactive); GI50 [10]: 4.53 µM (inactive); GI50 [11]: 5.46 µM (inactive); GI50 [12]: 7.6 µM (inactive); GI50 [13]: 3.66 µM (inactive); GI50 [14]: 4.18 µM (inactive); GI50 [15]: 3.65 µM (inactive); GI50 [16]: 17.6 µM (inactive); GI50 [17]: 4.42 µM (inactive); GI50 [18]: 12.7 µM (inactive); GI50 [19]: 5.98 µM (inactive); GI50 [20]: 13.6 µM (inactive)
